“And” between values parts separate entries of the source, which are not always exact repeats. Identical values can stand only once.
Biological target: Serine/threonine-protein phosphatase PP1-alpha catalytic subunit (Homo sapiens, UniProt P62136)
Experiment: inhibition of protein phosphatase 1 activity – biochemical, fluorescence, dose response (AID 2403)

Sequence of Serine/threonine-protein phosphatase PP1-alpha catalytic subunit (P62136 whole entry): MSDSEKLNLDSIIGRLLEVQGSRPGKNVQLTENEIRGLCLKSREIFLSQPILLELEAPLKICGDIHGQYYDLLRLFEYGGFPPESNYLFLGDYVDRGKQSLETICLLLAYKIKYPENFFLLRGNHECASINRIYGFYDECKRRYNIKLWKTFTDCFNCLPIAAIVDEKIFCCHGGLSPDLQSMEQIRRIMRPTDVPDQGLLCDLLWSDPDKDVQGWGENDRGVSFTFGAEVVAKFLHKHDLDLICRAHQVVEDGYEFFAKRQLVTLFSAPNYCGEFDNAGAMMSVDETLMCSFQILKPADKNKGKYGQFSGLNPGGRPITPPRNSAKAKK

| Compound | IC50 |
| --- | --- |
| CCOC(=O)c1sc(N2C(=O)C(=O)C(C(=O)c3ccco3)C2c2cccc([N+](=O)[O-])c2)nc1C (stereo not given) [MLS001082998] | 11.8 µM |
| O=C1OC(=O)[C@H]2[C@@H]1[C@@H]1CC[C@H]2O1 [(1R,2S,6R,7S)-4,10-Dioxa-tricyclo[5.2.1.0*2,6*]decane-3,5-dione] | 4.12 µM and 2.83 µM |
| CC1(C)Cc2c(nn(-c3ccccc3)c(=N)c2C#N)CO1 | 55.8 µM |
| COc1ccc(CN=Nc2cc(C)nc(-n3nc(C)cc3C)n2)c(OC)c1 [MLS000589396] | 6.68 µM |
| COc1ccc(CN=Nc2cc(C)nc(-n3nc(C)cc3C)n2)cc1 [SMR000212741] | 5.81 µM |
